For the assay, the target named is T1, MbAhpC (Mycobacterium tuberculosis, UniProt P9WQB7).
T1 construct: gene ahpC
The following applies: read-out: K m ± SD.

T1 sequence (P9WQB7 whole entry): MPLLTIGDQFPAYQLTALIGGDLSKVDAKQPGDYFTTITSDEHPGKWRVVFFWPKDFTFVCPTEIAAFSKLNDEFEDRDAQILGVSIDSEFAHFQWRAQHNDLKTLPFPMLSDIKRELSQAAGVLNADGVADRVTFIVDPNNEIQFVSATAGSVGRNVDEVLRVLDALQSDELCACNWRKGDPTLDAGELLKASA

As for `CC(C)(C)OO` [tert-butyl hydroperoxide], the Km amounted to 2.23 ± 0.49 µM.
